From patent US6544986B2, “Pyridones and their use as modulators of serine hydrolase enzymes” (Dalhousie University, priority 2000, dated 2003)
“Also recorded” adds a separate entry of the source.

Key:
human BuChE = human BuChE (Homo sapiens, UniProt P06276); test: Esterase activity assay (modified Ellman), BuChE with butyrylthiocholine; type: biochemical; details: for Ki: substrate butyrylthiocholine, pH 8.0, room temperature, from slopes of Lineweaver-Burk plots vs log concentration, read-out: Esterase Ki BuChE(h)
Experimental: (§1) The esterase activity of BuChE or AChE was determined by a modification of the method described by Ellman et al. (32), using a buffered 5,5′-dithiobis (2-nitrobenzoic acid) (DTNB) solution. Stock DTNB solution consisted of 10 mM DTNB with 18 mM sodium bicarbonate in 0.1 M phosphate buffer, pH 7.0. Working DTNB solution was prepared by mixing 3.6 mL of 10 mM stock DTNB solution with 96.4 mL of 0.1 M phosphate buffer at pH 8.0. The assay was carried out by mixing 2.7.mL of buffered DTNB working solution (pH 8.0), 0.1 mL of BuChE or AChE in 0.005% aqueous gelatin (1 U/mL), and 0.1 mL of 50% aqueous acetonitrile, or a solution of a 2-pyridone compound of the invention in the same solvent, in a quartz cuvette of 1 cm path-length. Absorbance of this solution was calibrated to zero and the reaction was commenced by adding 0.1 mL of aqueous acetylthiocholine (AcSCh) or butyrylthiocholine (BuSCh) solutions of varying concentration (between 1.9 mM and 15 mM). The final volume was always 3.0 mL. The reactions were carried out at room temperature. The rate of change of absorbance (ΔA/min), reflecting the rate of hydrolysis of BuSCh or AcSCh, was recorded every 5 seconds for a total of 1 minute using a Milton-Roy uv-visible spectrophotometer set at λ=412 nm.
(§2) The slopes of Lineweaver-Burk plots versus Log of inhibitor concentration were used to determine the inhibitor constant Ki.
(§3) The effect of increasing amount of exemplified 2-pyridone compounds (Examples 1 to 10) on the activity of human BuChE and AChE is shown in FIGS. 1 to 10.
(§4) The compounds of Examples 1 to 9 inhibited BuChE and AChE to varying degrees. Graphs of the slopes obtained from Lineweaver-Burk double reciprocal graphs versus log of the concentration of each compound gave the inhibition constant Ki for each compound.

human AChE = human AChE (Homo sapiens, UniProt P22303); test: Esterase activity assay (modified Ellman), AChE with acetylthiocholine; type: biochemical; details: substrate acetylthiocholine; for Ki: read-out: Esterase Ki AChE(h)
Experimental: as §1, §2, §3, §4

[1] = system: trypsin-like enzymatic activity associated with BuChE; test: Trypsin activity assay (BAPNA hydrolysis, HPLC of PNA), trypsin-like activity associated with BuChE; type: biochemical, human; details: substrate BAPNA, Tris buffer pH 8.0, 40° C.; FIG. 11
Experimental: (§5) The effect of 2-pyridone compounds on trypsin-like enzymatic activity associated with BuChE and that of human trypsin was determined using Nα-benzoyl-DL-arginine-p-nitroanilide (BAPNA) as the substrate. The same procedure was used to study the effect of the compounds on BuChE-trypsin mixture. Reactions were performed in 0.06 M Tris buffer at pH 8.0. […] The incubations were carried out in 1.5 mL Eppendorf tubes by mixing 0.85 mL of 0.06 M Tris buffer (pH 8.0), 0.07 mL of up to 10 mM BAPNA, 0.03 mL of 50% aqueous acetonitrile, or a solution of 2-pyridone compound (typically, a 5 mM working solution) in the same solvent, and 0.05 mL of the enzyme solution (0.5-1.5 U of trypsin in 1 mM hydrochloric acid, or up to 5.0 U of BuChE in 0.005% aqueous gelatin). The final volume of the assay mixture was always 1.0 mL. The enzyme reaction mixture was incubated at 40° C. for 15-45 hours. The use of 1.5 U of trypsin gave an amount of p-nitroaniline (PNA) produced upon cleavage of BAPNA by trypsin after 22 hours of incubation that was similar to the amount of product formed by trypsin-like activity associated with 5 U of BuChE under the same conditions.
(§6) The concentration of the PNA was determined by means of high performance liquid chromatography (HPLC). […] The rate of formation of PNA was calculated by using the following formula: […]

human trypsin = test: Trypsin activity assay (BAPNA hydrolysis, HPLC of PNA), trypsin; type: biochemical; details: substrate BAPNA, Tris buffer pH 8.0, 40° C.; FIG. 12
Experimental: as §5, §6

[2] = pH 8.0, room temperature, from slopes of Lineweaver-Burk plots vs log concentration

human BuChE, sequence (P06276 29-602): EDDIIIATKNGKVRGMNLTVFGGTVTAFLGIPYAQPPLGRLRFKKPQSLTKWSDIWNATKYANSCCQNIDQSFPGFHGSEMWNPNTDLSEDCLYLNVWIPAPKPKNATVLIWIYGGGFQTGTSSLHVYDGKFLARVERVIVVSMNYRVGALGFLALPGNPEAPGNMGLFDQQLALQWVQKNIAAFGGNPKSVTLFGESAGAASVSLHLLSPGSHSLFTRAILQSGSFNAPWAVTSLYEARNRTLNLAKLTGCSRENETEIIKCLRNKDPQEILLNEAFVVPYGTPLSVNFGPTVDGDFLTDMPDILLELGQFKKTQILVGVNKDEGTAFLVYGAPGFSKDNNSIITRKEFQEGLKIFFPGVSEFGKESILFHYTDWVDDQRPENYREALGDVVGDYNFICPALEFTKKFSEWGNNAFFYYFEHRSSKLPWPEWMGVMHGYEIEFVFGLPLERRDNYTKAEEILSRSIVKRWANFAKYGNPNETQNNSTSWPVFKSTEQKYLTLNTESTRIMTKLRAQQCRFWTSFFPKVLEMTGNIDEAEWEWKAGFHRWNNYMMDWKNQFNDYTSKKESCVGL
human AChE, sequence (P22303 32-614): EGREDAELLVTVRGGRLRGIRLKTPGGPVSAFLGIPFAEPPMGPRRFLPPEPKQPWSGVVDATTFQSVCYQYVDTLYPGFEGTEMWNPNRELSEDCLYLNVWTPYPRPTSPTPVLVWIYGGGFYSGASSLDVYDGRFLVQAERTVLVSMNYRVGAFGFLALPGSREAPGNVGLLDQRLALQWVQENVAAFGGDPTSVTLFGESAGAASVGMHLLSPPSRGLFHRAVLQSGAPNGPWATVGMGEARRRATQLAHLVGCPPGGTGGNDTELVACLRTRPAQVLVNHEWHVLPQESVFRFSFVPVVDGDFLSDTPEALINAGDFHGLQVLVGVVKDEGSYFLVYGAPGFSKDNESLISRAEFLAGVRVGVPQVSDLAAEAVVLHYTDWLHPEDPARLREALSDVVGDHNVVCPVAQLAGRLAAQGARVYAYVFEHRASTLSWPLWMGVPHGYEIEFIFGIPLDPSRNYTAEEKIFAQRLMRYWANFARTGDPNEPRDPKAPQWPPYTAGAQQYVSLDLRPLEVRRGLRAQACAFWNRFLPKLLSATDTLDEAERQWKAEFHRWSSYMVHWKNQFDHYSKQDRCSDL

SMILES	Ki (human BuChE) [mM]	Ki (human AChE; [2]) [mM]	effect on trypsin-like activity associated with BuChE (rate of hydrolysis of BAPNA) [1]	effect on enzymatic activity of trypsin itself (human trypsin)	inhibitory activity towards each cholinesterase studied (comparison) (human BuChE; BuChE versus AChE)	inhibition of the activity of AChE on acetylthiocholine (in words) (human AChE)	Esterase Ki AChE(h) (human AChE; [2])
O=C(c1ccc(=O)[nH]c1)N(Cc1ccccc1)Cc1ccccc1 [Example 1, 5-(N,N-Dibenzyl)aminocarbonyl-2-pyridone]	0.0375	0.26	increased the rate of hydrolysis; also recorded: considerably enhanced	do not have direct effect on trypsin alone	–	–	–
CCN(CC)Cc1ccc(=O)[nH]c1 [Example 4, 5-(N,N-Diethyl)aminomethyl-2-pyridone]	3.89	4.77	–	–	equal inhibitory activity	–	–
CCN(CC)C(=O)c1ccc(=O)[nH]c1 [Example 3, 5-(N,N-Diethyl)aminocarbonyl-2-pyridone]	1.3	7.6	–	–	–	–	–
O=C(NC1CCCCC1)c1ccc(=O)[nH]c1 [Example 7, 5-(N-Cyclohexyl)aminocarbonyl-2-pyridone]	0.137	–	–	–	–	no inhibition	Insignificant inhibition
CC(C)N(C(=O)c1ccc(=O)[nH]c1)C(C)C [Example 2, 5-(N,N-Diisopropyl)aminocarbonyl-2-pyridone]	1.43	0.131	–	–	–	–	–
